Converted amounts (≈) assume the structure as drawn.
Assays:
Format in all cases: functional
Aspergillus niger [1] = assay: Antifungal activity against Aspergillus niger assessed as zone of inhibition at 250 ug/ml; details: read-out: IZ
Staphylococcus aureus [2] = assay: Antimicrobial activity against Staphylococcus aureus assessed as zone of inhibition at 250 ug/ml; details: read-out: IZ
Bacillus cereus = assay: Antimicrobial activity against Bacillus cereus assessed as zone of inhibition at 250 ug/ml; details: read-out: IZ
Escherichia coli [3] = assay: Antimicrobial activity against Escherichia coli assessed as zone of inhibition at 250 ug/ml; details: read-out: IZ
Candida albicans [4] = assay: Antifungal activity against Candida albicans assessed as zone of inhibition at 250 ug/ml; details: read-out: IZ
Pseudomonas aeruginosa [5] = assay: Antimicrobial activity against Pseudomonas aeruginosa assessed as zone of inhibition at 250 ug/ml; details: read-out: IZ
Staphylococcus aureus [6] = assay: Antimicrobial activity against Staphylococcus aureus
Candida albicans [7] = assay: Antifungal activity against Candida albicans
Aspergillus niger [8] = assay: Antifungal activity against Aspergillus niger
Escherichia coli [9] = assay: Antimicrobial activity against Escherichia coli
Pseudomonas aeruginosa [10] = assay: Antimicrobial activity against Pseudomonas aeruginosa
Bacillus subtilis = assay: Antimicrobial activity against Bacillus subtilis

Row | MIC (Staphylococcus aureus [6]) | MIC (Candida albicans [7]) | MIC (Aspergillus niger [8]) | MIC (Escherichia coli [9]) | MIC (Pseudomonas aeruginosa [10]) | MIC (Bacillus subtilis) | Structure (SMILES) | zone of inhibition at 250 µg/mL (Aspergillus niger [1]) | zone of inhibition at 250 µg/mL (Staphylococcus aureus [2]) | zone of inhibition at 250 µg/mL (Bacillus cereus) | zone of inhibition at 250 µg/mL (Escherichia coli [3]) | zone of inhibition at 250 µg/mL (Candida albicans [4]) | zone of inhibition at 250 µg/mL (Pseudomonas aeruginosa [5])
1 | – | – | – | – | – | – | CC(=O)N1N=C(Cn2cc(-c3nn(-c4ccncc4)cc3-c3nnnn3-c3ccccc3)c3cc(Cl)ccc32)OC1(C)c1ccc(C(F)(F)F)cc1 (stereo unspecified) | 8 to 20 mm | 8 to 20 mm | 8 to 20 mm | 8 to 20 mm | 8 to 20 mm | 8 to 20 mm
2 | 3.12 to 100 µg/mL (≈ 8.04 to 257 µM) | 3.12 to 100 µg/mL (≈ 8.04 to 257 µM) | 3.12 to 100 µg/mL (≈ 8.04 to 257 µM) | 3.12 to 100 µg/mL (≈ 8.04 to 257 µM) | 3.12 to 100 µg/mL (≈ 8.04 to 257 µM) | – | Cc1ccc2cc(C3CC(c4ccccn4)=NN3C(N)=S)c3nnnn3c2c1 (stereo unspecified) | – | – | – | – | – | –
3 | > 320 µg/mL | – | – | > 320 µg/mL | > 320 µg/mL | – | Fc1ccc2c(c1)sc1nc(-c3cc4ccccc4n4nnnc34)c(NCCc3ccccc3)n12 | – | – | – | – | – | –
4 | 125 to 1000 µg/mL (≈ 584 to 4670 µM) | – | – | 125 to 1000 µg/mL (≈ 584 to 4670 µM) | 125 to 1000 µg/mL (≈ 584 to 4670 µM) | – | c1cc(-c2nnn[nH]2)cc(-c2nnn[nH]2)c1 | – | – | – | – | – | –
5 | – | – | – | 7.75 to 35.4 µg/mL (≈ 14.6 to 66.9 µM) | – | 7.75 to 35.4 µg/mL (≈ 14.6 to 66.9 µM) | COc1cc(/C=C2\SC(=O)N(Cc3ccc(-c4ccccc4-c4nnn[nH]4)cc3)C2=O)cc(OC)c1OC | – | – | – | – | – | –
6 | 250 µg/mL (≈ 861 µM) | – | – | 125 µg/mL (≈ 431 µM) | 500 µg/mL (≈ 1720 µM) | – | COc1cc(Cc2cnc(N)nc2N)cc(OC)c1OC [TRIMETHOPRIM] | – | – | – | – | – | –
7 | > 320 µg/mL | – | – | > 320 µg/mL | > 320 µg/mL | – | COc1ccc(Nc2c(-c3cc4ccccc4n4nnnc34)nc3sccn23)cc1 | – | – | – | – | – | –
8 | 6.25 to 100 µg/mL (≈ 19.8 to 317 µM) | 6.25 to 100 µg/mL (≈ 19.8 to 317 µM) | 6.25 to 100 µg/mL (≈ 19.8 to 317 µM) | 6.25 to 100 µg/mL (≈ 19.8 to 317 µM) | 6.25 to 100 µg/mL (≈ 19.8 to 317 µM) | – | Cc1ccc2c(c1)cc(/C=C/C(=O)c1ccccn1)c1nnnn12 | – | – | – | – | – | –
9 | – | – | – | – | – | – | CC(=O)N1N=C(Cn2cc(-c3nn(-c4ccncc4)cc3-c3nnnn3-c3ccc(Cl)cc3)c3cc(Cl)ccc32)OC1(C)c1ccc(C(F)(F)F)cc1 (stereo unspecified) | 8 to 20 mm | 8 to 20 mm | 8 to 20 mm | 8 to 20 mm | 8 to 20 mm | 8 to 20 mm
10 | > 320 µg/mL | – | – | > 320 µg/mL | > 320 µg/mL | – | COc1ccc(Nc2c(-c3cc4ccccc4n4nnnc34)nc3sc(C#N)cn23)cc1 | – | – | – | – | – | –
11 | 50 to 400 µg/mL (≈ 142 to 1140 µM) | – | – | 50 to 400 µg/mL (≈ 142 to 1140 µM) | 50 to 400 µg/mL (≈ 142 to 1140 µM) | 50 to 400 µg/mL (≈ 142 to 1140 µM) | Cc1cccc2oc(-c3ccc(F)cc3)c(OCc3nnn[nH]3)c(=O)c12 | – | – | – | – | – | –
12 | – | – | – | 7.75 to 35.4 µg/mL (≈ 15.5 to 70.9 µM) | – | 7.75 to 35.4 µg/mL (≈ 15.5 to 70.9 µM) | COc1ccc(/C=C2\SC(=O)N(Cc3ccc(-c4ccccc4-c4nnn[nH]4)cc3)C2=O)c(OC)c1 | – | – | – | – | – | –
13 | 6.25 to 100 µg/mL (≈ 18.1 to 290 µM) | 6.25 to 100 µg/mL (≈ 18.1 to 290 µM) | 6.25 to 100 µg/mL (≈ 18.1 to 290 µM) | 6.25 to 100 µg/mL (≈ 18.1 to 290 µM) | 6.25 to 100 µg/mL (≈ 18.1 to 290 µM) | – | COc1ccc(C(=O)/C=C/c2cc3cc(C)ccc3n3nnnc23)cc1 | – | – | – | – | – | –
14 | 3.12 to 100 µg/mL (≈ 7.41 to 237 µM) | 3.12 to 100 µg/mL (≈ 7.41 to 237 µM) | 3.12 to 100 µg/mL (≈ 7.41 to 237 µM) | 3.12 to 100 µg/mL (≈ 7.41 to 237 µM) | 3.12 to 100 µg/mL (≈ 7.41 to 237 µM) | – | Cc1ccc2c(c1)cc(C1CC(c3ccc(Cl)cc3)=NN1C(N)=S)c1nnnn12 (stereo unspecified) | – | – | – | – | – | –
15 | 6.25 to 100 µg/mL (≈ 19.8 to 317 µM) | 6.25 to 100 µg/mL (≈ 19.8 to 317 µM) | 6.25 to 100 µg/mL (≈ 19.8 to 317 µM) | 6.25 to 100 µg/mL (≈ 19.8 to 317 µM) | 6.25 to 100 µg/mL (≈ 19.8 to 317 µM) | – | Cc1ccc2cc(/C=C/C(=O)c3ccccn3)c3nnnn3c2c1 | – | – | – | – | – | –
16 | > 320 µg/mL | – | – | > 320 µg/mL | > 320 µg/mL | – | CC(C)(C)Nc1c(-c2cc3ccccc3n3nnnc23)nc2sccn12 | – | – | – | – | – | –
17 | – | – | – | – | – | – | COc1ccc(-n2nnnc2-c2cn(-c3ccncc3)nc2-c2cn(CC3=NN(C(C)=O)C(C)(c4ccc(C(F)(F)F)cc4)O3)c3ccc(Cl)cc23)cc1 (stereo unspecified) | 8 to 20 mm | 8 to 20 mm | 8 to 20 mm | 8 to 20 mm | 8 to 20 mm | 8 to 20 mm
18 | – | – | – | 7.75 to 35.4 µg/mL (≈ 17.6 to 80.6 µM) | – | 7.75 to 35.4 µg/mL (≈ 17.6 to 80.6 µM) | O=C1S/C(=C\c2ccccc2)C(=O)N1Cc1ccc(-c2ccccc2-c2nnn[nH]2)cc1 | – | – | – | – | – | –
19 | 3.12 to 100 µg/mL (≈ 8.07 to 258 µM) | 3.12 to 100 µg/mL (≈ 8.07 to 258 µM) | 3.12 to 100 µg/mL (≈ 8.07 to 258 µM) | 3.12 to 100 µg/mL (≈ 8.07 to 258 µM) | 3.12 to 100 µg/mL (≈ 8.07 to 258 µM) | – | Cc1ccc2cc(C3CC(c4ccccc4)=NN3C(N)=S)c3nnnn3c2c1 (stereo unspecified) | – | – | – | – | – | –
20 | 6.25 to 100 µg/mL (≈ 17.9 to 287 µM) | 6.25 to 100 µg/mL (≈ 17.9 to 287 µM) | 6.25 to 100 µg/mL (≈ 17.9 to 287 µM) | 6.25 to 100 µg/mL (≈ 17.9 to 287 µM) | 6.25 to 100 µg/mL (≈ 17.9 to 287 µM) | – | Cc1ccc2cc(/C=C/C(=O)c3ccc(Cl)cc3)c3nnnn3c2c1 | – | – | – | – | – | –
21 | – | – | – | – | – | – | CC(=O)N1N=C(Cn2cc(-c3nn(-c4ccncc4)cc3-c3nnnn3-c3ccc([N+](=O)[O-])cc3)c3cc(Cl)ccc32)OC1(C)c1ccc(C(F)(F)F)cc1 (stereo unspecified) | 8 to 20 mm | 8 to 20 mm | 8 to 20 mm | 8 to 20 mm | 8 to 20 mm | 8 to 20 mm
22 | 6.25 to 100 µg/mL (≈ 19.9 to 318 µM) | 6.25 to 100 µg/mL (≈ 19.9 to 318 µM) | 6.25 to 100 µg/mL (≈ 19.9 to 318 µM) | 6.25 to 100 µg/mL (≈ 19.9 to 318 µM) | 6.25 to 100 µg/mL (≈ 19.9 to 318 µM) | – | Cc1ccc2c(c1)cc(/C=C/C(=O)c1ccccc1)c1nnnn12 | – | – | – | – | – | –
23 | 3.12 to 100 µg/mL (≈ 7.94 to 254 µM) | 3.12 to 100 µg/mL (≈ 7.94 to 254 µM) | 3.12 to 100 µg/mL (≈ 7.94 to 254 µM) | 3.12 to 100 µg/mL (≈ 7.94 to 254 µM) | 3.12 to 100 µg/mL (≈ 7.94 to 254 µM) | – | Cc1ccc2c(c1)cc(C1CC(c3cccs3)=NN1C(N)=S)c1nnnn12 (stereo unspecified) | – | – | – | – | – | –
24 | > 320 µg/mL | – | – | > 320 µg/mL | > 320 µg/mL | – | CC(C)(C)Nc1c(-c2cc3ccccc3n3nnnc23)nc2sc(C#N)cn12 | – | – | – | – | – | –
25 | – | – | – | – | – | – | CC(=O)N1N=C(Cn2cc(-c3nn(-c4ccncc4)cc3-c3nnnn3-c3ccc(C(F)(F)F)cc3)c3cc(Cl)ccc32)OC1(C)c1ccc(C(F)(F)F)cc1 (stereo unspecified) | 8 to 20 mm | 8 to 20 mm | 8 to 20 mm | 8 to 20 mm | 8 to 20 mm | 8 to 20 mm

Source: ChEMBL document CHEMBL4342421, “Current scenario of tetrazole hybrids for antibacterial activity” (Eur J Med Chem, 2019)
